# Results: US5110796A, “Prophylactic and therapeutic agents for cataracts” (priority 1988, dated 1992)
# Where a name gives a salt, the structure may show the parent alone.
# Key:
# [1] = test system: mice; conditions: intraperitoneal injection to mice
# [2] = test system: X-ray induced cataracts
# Experimental: Four-week old SLC Wistar rats are divided into three groups having ten animals in each group; the first group is a normal control group. The second group is an X-ray irradiated control group which is administered intraperitoneally 1 ml/kg of physiological saline solution three times a week after X-ray irradiation. For the third group, 20 mg/kg of glutathione monoisopropyl ester sulfate is administered intraperitoneally three times a week after X-ray irradiation. X-ray irradiation is carried out by irradiating the cephalic portion of conscious rats at 1,000 rad.
# After X-ray irradiation, the lens are monitored every two weeks for opacity with a slit lamp. […] When the conditions of lens of the X-ray irradiated control group (the second group) reaches level IV or more (at 28 weeks), the tests are finished. Then the lens are extracted and measured for biochemical parameters [amounts of nonprotein-SH (Ellman's method), amounts of Na^+ /K^+ and Ca^++ (Atomic absorption method)].
compound,measurement,setting,value
"CC(C)OC(=O)CNC(=O)[C@H](CS)NC(=O)CC[C@H](N)C(=O)O [glutathione monoisopropyl ester sulfate, isopropylγ-L-glutamyl-L-cysteinylglycinate]",acute toxicity (LD50),[1],approximately 5.3 g/kg
same,"share of the group with II grade lens score (seven grades I to VII, clear to opacitas)","[2]; 20 mg/kg i.p. three times a week after 1,000 rad X-ray irradiation, 28 weeks, in the X-ray irradiated control the V grade is greater than 50%",greater than 50%
same,inhibiting action of cataracts,"[2]; 20 mg/kg i.p. three times a week after X-ray irradiation, rats",outstanding inhibiting action of cataracts
